One series deals with HTT mRNA. Kind of series: Splicing RT-qPCR assay, HTT canonical (CJ) and alternative (AJ) junction mRNA. The class given is cell-based. Conditions: Homo sapiens, A673 or K562 cells, 24 hours treatment; for IC50: decrease in CJ mRNA; for AC50: increase in AJ mRNA. The essentials:
(§1)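 Compound-treated A673 or K562 cells (11-point 3-fold dilution, top dose 10 uM final, DMSO ≤0.25%) were incubated for 24 h at 37° C. Lysates underwent one-step RT-qPCR for canonical and alternative-exon junction isoforms. Normalization used PPIA for A673 and GAPDH or GUSB for K562.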
Background: Quantitative PCR measures a nucleic acid by following its amplification.

In another series the test system is MYB mRNA. The series is described as follows: Splicing RT-qPCR assay, MYB canonical (CJ) and alternative (AJ) junction mRNA. Conditions: Homo sapiens, A673 or K562 cells, 24 hours treatment; for IC50: decrease in CJ mRNA; for AC50: increase in AJ mRNA. The class given is cell-based. The essentials: as §1
The subject of another series is HTT CJ mRNA. The series is described as follows: Gene panel canonical junction qPCR assay, HTT. The class given is cell-based. Conditions: Homo sapiens, larger gene panel, read-out: HTT IC50 (decrease in CJ mRNA levels). The essentials:
(§2)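 A673 or K562 cells treated 24 h with 11-point 3-fold dilutions (top 10 µM, ≤0.25% DMSO) at 37 °C. Canonical exon-junction mRNA measured by probe-based RT-qPCR, normalized to GAPDH, GUSB or PPIA and DMSO (2^−ΔΔCt), converted to percent response over a fixed ΔCt window; IC50 from 4-parameter fit.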

A further series relates to SMN2 CJ mRNA. The series is described as follows: Gene panel canonical junction qPCR assay, SMN2. Conditions: Homo sapiens, larger gene panel, read-out: SMN2 IC50 (decrease in CJ mRNA levels). It counts as cell-based. The essentials: as §2
Another series deals with Target C CJ mRNA. Kind of series: Gene panel canonical junction qPCR assay, Target C. It counts as cell-based. Conditions: Homo sapiens, larger gene panel, read-out: Target C IC50 (decrease in CJ mRNA levels). The method, boiled down:
as §2

The nature of series [1]: Cell Titer Glo 2.0 cell viability assay. Conditions: human, K562 cells. For orientation: ATP-based viability assays read luminescence as a measure of living cells.

Usually IC50 stands for the concentration that inhibits the measured activity by half. As a reminder, the AC50 is the concentration at which the activity in the assay is half-maximal. Read a high AC50 as weaker potency. A word on the GI50: it is the concentration that inhibits growth by half. Low readings indicate more potent growth inhibition, high ones less potent growth inhibition. `Cc1cn2cc(-c3nn4c(=O)cc(N5CCNC6(CC6)C5)nc4s3)cc(F)c2n1` [Compound 216, 2-(8-fluoro-2-methylimidazo[1,2-a]pyridin-6-yl)-7-(4,7-diazaspiro[2.5]octan-7-yl)-5H-[1,3,4]thiadiazolo[3,2-a]pyrimidin-5-one]: the IC50 with HTT mRNA, in the series with MYB mRNA, in the series with HTT CJ mRNA, with SMN2 CJ mRNA and in the series on Target C CJ mRNA was 1 to 10 µM throughout. The AC50 in the series on HTT mRNA and with MYB mRNA was 1 to 10 µM in each case. In series [1], the concentration for 50% growth inhibition (GI50) at 72 h fell in the range of 1 to 10 µM.
As for `Cc1cn2cc(-c3nn4c(=O)cc(N5CCN(C)CC5)nc4s3)cc(F)c2n1` [Compound 217, 2-(8-fluoro-2-methylimidazo[1,2-a]pyridin-6-yl)-7-(4-methylpiperazin-1-yl)-5H-[1,3,4]thiadiazolo[3,2-a]pyrimidin-5-one], the IC50 in the series with HTT mRNA, in the series with MYB mRNA, with HTT CJ mRNA, with SMN2 CJ mRNA and in the series on Target C CJ mRNA was 1 to 10 µM throughout. In addition, the AC50 with HTT mRNA and in the series with MYB mRNA was 1 to 10 µM in each case. This compound returned a 50% growth inhibitory concentration (GI50) at 72 h in series [1] of 1 to 10 µM.
For the compound `Cc1cn2cc(-c3nn4c(=O)cc(N5CCN(C)C6(CC6)C5)nc4s3)cc(F)c2n1` [Compound 218, 2-(8-fluoro-2-methylimidazo[1,2-a]pyridin-6-yl)-7-(4-methyl-4,7-diazaspiro[2.5]octan-7-yl)-5H-[1,3,4]thiadiazolo[3,2-a]pyrimidin-5-one], the IC50 in the series on HTT mRNA, in the series with MYB mRNA, with HTT CJ mRNA, in the series on SMN2 CJ mRNA and in the series with Target C CJ mRNA was 1 to 10 µM each time. The AC50 with HTT mRNA and with MYB mRNA was 1 to 10 µM in each case. This compound also registered a GI50 at 72 h in series [1] of 1 to 10 µM.
In the case of `Cn1cc2cc(-n3cnc4nc(N5CCNCC5)sc4c3=O)ccc2n1` [Compound 225, 6-(2-methyl-2H-indazol-5-yl)-2-(piperazin-1-yl)thiazolo[4,5-d]pyrimidin-7(6H)-one], the IC50 with HTT mRNA, with MYB mRNA, in the series on HTT CJ mRNA, in the series on SMN2 CJ mRNA and in the series with Target C CJ mRNA was greater than 10 µM in each case. Besides, the AC50 with HTT mRNA and in the series on MYB mRNA was greater than 10 µM each time. The GI50 at 72 h in series [1] was greater than 10 µM.
`Cc1cn2cc(-n3cnc4nc(N5CCNCC5)sc4c3=O)cc(F)c2n1` [Compound 226, 6-(8-fluoro-2-methylimidazo[1,2-a]pyridin-6-yl)-2-(piperazin-1-yl)thiazolo[4,5-d]pyrimidin-7(6H)-one]: the IC50 in the series with HTT mRNA, in the series on MYB mRNA, with HTT CJ mRNA, in the series with SMN2 CJ mRNA and in the series with Target C CJ mRNA was 0.1 to 1 µM each time. Besides, the half-maximal activity concentration (AC50) in the series on HTT mRNA and in the series with MYB mRNA was 0.1 to 1 µM throughout. For the same compound, the GI50 at 72 h in series [1] lay within 0.1 to 1 µM.
Consider `Cc1cn2cc(-n3cnc4nc(N5CCN(C)CC5)sc4c3=O)cc(F)c2n1` [Compound 228, 6-(8-fluoro-2-methylimidazo[1,2-a]pyridin-6-yl)-2-(4-methylpiperazin-1-yl)thiazolo[4,5-d]pyrimidin-7(6H)-one], for which the IC50 in the series with HTT mRNA, in the series with MYB mRNA, in the series on HTT CJ mRNA, with SMN2 CJ mRNA and with Target C CJ mRNA was 1 to 10 µM in each case. The AC50 with HTT mRNA and in the series on MYB mRNA was 1 to 10 µM in each case. The compound also yielded a GI50 at 72 h in series [1] of 1 to 10 µM.
Regarding `Cc1cn2cc(-n3cnc4nc(N5CCNCC5)sc4c3=O)cc(C(F)(F)F)c2n1` [Compound 229, 6-(2-methyl-8-(trifluoromethyl)imidazo[1,2-a]pyridin-6-yl)-2-(piperazin-1-yl)thiazolo[4,5-d]pyrimidin-7(6H)-one], the 50% inhibitory concentration (IC50) in the series on HTT mRNA, with MYB mRNA, in the series on HTT CJ mRNA, with SMN2 CJ mRNA and with Target C CJ mRNA was greater than 10 µM in each case. The AC50 in the series with HTT mRNA and in the series on MYB mRNA was greater than 10 µM each time. In addition, in series [1], the GI50 at 72 h is greater than 10 µM.
For `Cc1cn2cc(-n3cnc4nc(N5CCN(C)CC5)sc4c3=O)cc(C(F)(F)F)c2n1` [Compound 230, 6-(2-methyl-8-(trifluoromethyl)imidazo[1,2-a]pyridin-6-yl)-2-(4-methylpiperazin-1-yl)thiazolo[4,5-d]pyrimidin-7(6H)-one], the IC50 in the series with HTT mRNA is greater than 10 µM; in the series with MYB mRNA, 0.1 to 1 µM; with HTT CJ mRNA it was greater than 10 µM; in the series on SMN2 CJ mRNA, greater than 10 µM; in the series with Target C CJ mRNA it was greater than 10 µM. In addition, the AC50 with HTT mRNA is greater than 10 µM; with MYB mRNA, 0.1 to 1 µM. In series [1], the 50% growth inhibitory concentration (GI50) at 72 h is greater than 10 µM.
In the case of `Cc1cn2nc(-c3nc4ncn(C5CCNCC5)c(=O)c4s3)cc(C)c2n1` [Compound 231, 2-(2,8-dimethylimidazo[1,2-b]pyridazin-6-yl)-6-(piperidin-4-yl)thiazolo[4,5-d]pyrimidin-7(6H)-one], the 50% inhibitory concentration (IC50) was in the range of 0.1 to 1 µM with HTT mRNA; 0.1 to 1 µM in the series with MYB mRNA; 0.1 to 1 µM in the series on HTT CJ mRNA; 1 to 10 µM in the series with SMN2 CJ mRNA; 1 to 10 µM in the series with Target C CJ mRNA. For the same compound, the AC50 in the series on HTT mRNA and in the series on MYB mRNA was 0.1 to 1 µM throughout. Further, the GI50 at 72 h in series [1] is 1 to 10 µM.
Regarding `Cc1cn2cc(-c3nc4ncn(C5CCNCC5)c(=O)c4s3)cc(F)c2n1` [Compound 232, 2-(8-fluoro-2-methylimidazo[1,2-a]pyridin-6-yl)-6-(piperidin-4-yl)thiazolo[4,5-d]pyrimidin-7(6H)-one], the IC50 with HTT mRNA is less than 0.1 µM; with MYB mRNA it was 0.1 to 1 µM; with HTT CJ mRNA it was less than 0.1 µM; in the series on SMN2 CJ mRNA, less than 0.1 µM; with Target C CJ mRNA it was 0.1 to 1 µM. In addition, the AC50 was less than 0.1 µM with HTT mRNA and 0.1 to 1 µM with MYB mRNA. In series [1], this compound had a GI50 at 72 h of 0.1 to 1 µM.
As to `Cc1cc(-c2nc3ncn(C4CCNCC4)c(=O)c3s2)cc2cn(C)nc12` [Compound 233, 2-(2,7-dimethyl-2H-indazol-5-yl)-6-(piperidin-4-yl)thiazolo[4,5-d]pyrimidin-7(6H)-one], the IC50 is less than 0.1 µM with HTT mRNA; 0.1 to 1 µM in the series on MYB mRNA; less than 0.1 µM with HTT CJ mRNA; less than 0.1 µM with SMN2 CJ mRNA; 0.1 to 1 µM in the series on Target C CJ mRNA. Further, the half-maximal activity concentration (AC50) with HTT mRNA and with MYB mRNA was less than 0.1 µM in each case. Moreover, in series [1], the GI50 at 72 h lay in the range of 0.1 to 1 µM.
In the case of `Cc1cc(-c2nc3ncn(C4CCN(C)CC4)c(=O)c3s2)cc2cn(C)nc12` [Compound 234, 2-(2,7-dimethyl-2H-indazol-5-yl)-6-(1-methylpiperidin-4-yl)thiazolo[4,5-d]pyrimidin-7(6H)-one], the IC50 with HTT mRNA is 0.1 to 1 µM; with MYB mRNA, 0.1 to 1 µM; in the series with HTT CJ mRNA, 0.1 to 1 µM; in the series on SMN2 CJ mRNA, less than 0.1 µM; with Target C CJ mRNA, 1 to 10 µM. The results for the AC50 in the series with HTT mRNA and in the series on MYB mRNA were 0.1 to 1 µM and less than 0.1 µM, respectively. In series [1], the GI50 at 72 h is 0.1 to 1 µM.
For `Cc1cn2cc(-c3cc4ncn(C5CCNCC5)c(=O)c4s3)cc(F)c2n1` [Compound 235, 6-(8-fluoro-2-methylimidazo[1,2-a]pyridin-6-yl)-3-(piperidin-4-yl)thieno[3,2-d]pyrimidin-4(3H)-one], the IC50 was less than 0.1 µM in the series with HTT mRNA; 0.1 to 1 µM in the series on MYB mRNA; less than 0.1 µM in the series on HTT CJ mRNA; less than 0.1 µM in the series on SMN2 CJ mRNA; 0.1 to 1 µM in the series with Target C CJ mRNA. In addition, the AC50 in the series on HTT mRNA is less than 0.1 µM; in the series on MYB mRNA, 0.1 to 1 µM. Also, the concentration for 50% growth inhibition (GI50) at 72 h in series [1] is 0.1 to 1 µM.
